According to patent US7811352B2, “Fertilizer compositions and methods of using” (priority 2005, dated 2010):
Marks after values point to notes of the source that are not given here.

Key:
Format in all cases: in vivo
[1] = tested on: creeping bentgrass for greens; test: Turfgrass quality and color ratings, creeping bentgrass for greens (Example 12); conditions: scale 1-10
From the text: In this Example, the effect of a fertilizer comprising lysine on turfgrass growth was examined. The effects of lysine (HCl) and LIQUID LYSINE on a common type of golf course greens quality turfgrass (creeping bentgrass for greens) were compared with those of CoRoN® brand fertilizer (commercially available from Helena Chemical Co., Collierville, Tenn.).
Nine fertilizer treatments comprising three concentrations of each fertilizer composition (Corono® (N—P—K, 14-2-14), LIQUID LYSINE (N—P—K, 10-2-1), and lysine (HCl) (N—P—K, 15-2-1)) were prepared and applied to 3 replications of creeping bentgrass for use on golf course greens. The lysine (HCl) (250 g) was dissolved in water (500 mL) prior to application. Each fertilizer treatment was applied in concentrations of 0.7 g N/m^2, 1.4 g N/m^2, and 2.8 g N/m^2. All applications were made using an Ortho Heavy Duty hand pump sprayer with all products being mixed with 126 mL of water for application. Plot size was 2 ft×6 ft set up as a randomized complete block. Irrigation was applied following application. Plots were rated for turfgrass quality and color (scale of 1-10 where 10=dark green turf, 1=dead/brown turf, and 6minimally acceptable turf) and phytotoxicity (% bum) throughout the study period. Quality, color, and phytotoxicity were measured on day 7, day 14, day 2I1, day 28, day 35, and day 42 after application. All data was subject to statistical analysis and significant means were determined.

[2] = tested on: rhizomatous tall fescue grass; test: Turfgrass quality and color ratings, rhizomatous tall fescue (Example 14); conditions: scale of 1-10
Experimental: In this Example, the effect of a fertilizer comprising lysine on turfgrass growth was examined. The effects of lysine (HCl) and LIQUID LYSINE on a common type of lawn quality turfgrass (rhizomatous tall fescue) were compared with those of CoRoN® brand fertilizer.
Six fertilizer treatments comprising two concentrations of each fertilizer composition (Coron® (N—P—K, 14-2-34), LIQUID LYSINE (N—P—K, 10-2-1), and lysine (HCl) (N—P—K, 15-2-1)) were prepared and applied to 3 replications of rhizomatous tall fescue grass. The solutions of lysine (HCl) (dissolved in 0.5 gal water), LIQUID LYSINE and Coran were applied using a Birchmeier backpack sprayer with a 5 foot spray pattern, Each fertilizer treatment was applied in either a 3-split application with an application rate of 2 lb N/1000 ft^2 or a 6-split application with an application rate of 1 lb N/1000 ft^2. Plot size was 9 ft×9 ft set up as a randomized complete block. Irrigation was applied following application. Plots were rated for turfgrass quality and color (scale of 1-10 where 10=dark green turf, 1 =dead/brown turf, and 6=minimally acceptable turf and phytotoxicity (% burn) throughout the study period and compared with two untreated plots. Quality, color, and phytotoxicity were measured on day 7, day 14, day 21, day 28, day 35, and day 42 after application. All data was subject to statistical analysis and significant means were determined. Average turfgrass quality ratings for the treatments are presented in Table 21. Average turfgrass color ratings are presented in Table 22. Average phytotoxicity ratings (as % burn) are presented in Table 23.

[3] = tested on: green height, creeping bentgrass; test: Injury rating of green height creeping bentgrass after fertilization (Example 4); conditions: about two weeks after application
Experimental: In this Example, the efficacy of fertilizers on green height, creeping bentgrass was examined. Fertilizer compositions according to several embodiments of the present disclosure were prepared and compared to the commercial fertilizer products, urea 46-0-0 (granular) fertilizer, Lebanon fertilizer 21-0-12 (granular, commercially available from Lebanon Seaboard Corporation, Lebanon, Pa.) and Milorganite 6-2-0 (granular, commercially available from Milorganite, Milwaukee, Wis.). The fertilizer compositions were applied to the turf grass prior to winter dormancy of the turf at a rate equivalent to supplying about 1.0 pounds of nitrogen (N) per 1000 square feet. Each of the fertilizer compositions were applied at substantially equal rates of pounds (lbs) of nitrogen (N) per 1000 square feet. Table 1 illustrates the response of green height (i.e., the height of grass on golf course green), creeping bentgrass to fertilization using various exemplary fertilizers of the present invention, taken about two weeks after application of the fertilizer. The letters in the Color and Injury columns correspond to Duncan's Multiple Range Test. Numbers (means) in a column followed by the same letter are not statistically different at P=0.05.

[4] = 3-split, 2.0 lb N/1000 ft^2, Day 7
[5] = 3-split, 2.0 lb N/1000 ft^2, Day 14
[6] = 3-split, 2.0 lb N/1000 ft^2, Day 21
[7] = 3-split, 2.0 lb N/1000 ft^2, Day 28
[8] = 3-split, 2.0 lb N/1000 ft^2, Day 35
[9] = 6-split, 1.0 lb N/1000 ft^2, Day 7
[10] = 6-split, 1.0 lb N/1000 ft^2, Day 14
[11] = 6-split, 1.0 lb N/1000 ft^2, Day 21
[12] = 6-split, 1.0 lb N/1000 ft^2, Day 28
[13] = 6-split, 1.0 lb N/1000 ft^2, Day 35

Structure (SMILES): Cl.NCCCC[C@H](N)C(=O)O [Lys (HCl) 15% N, L-lysine monohydrochloride]
- Color Ratings - Creeping Bentgrass ([1]; Rate 0.7 gN/m^2, Day 7): 6.0abc
- Quality Ratings - Creeping Bentgrass ([1]; Rate 0.7 gN/m^2, Day 7): 5.3a
- Color Ratings - Creeping Bentgrass ([1]; Rate 0.7 gN/m^2, Day 14): 6.0cd
- Quality Ratings - Creeping Bentgrass ([1]; Rate 0.7 gN/m^2, Day 14): 6.3cd
- Color Ratings - Creeping Bentgrass ([1]; Rate 0.7 gN/m^2, Day 21): 6.3a
- Quality Ratings - Creeping Bentgrass ([1]; Rate 0.7 gN/m^2, Day 21): 6.7a
- Color Ratings - Creeping Bentgrass ([1]; Rate 0.7 gN/m^2, Day 28): 6.3ab
- Quality Ratings - Creeping Bentgrass ([1]; Rate 0.7 gN/m^2, Day 28): 6.3a
- Color Ratings - Creeping Bentgrass ([1]; Rate 0.7 gN/m^2, Day 35): 6.3a
- Quality Ratings - Creeping Bentgrass ([1]; Rate 0.7 gN/m^2, Day 35): 6.3ab
- Color Ratings - Creeping Bentgrass ([1]; Rate 0.7 gN/m^2, Day 42): 7.3a
- Quality Ratings - Creeping Bentgrass ([1]; Rate 0.7 gN/m^2, Day 42): 7.0a
- Color Ratings - Creeping Bentgrass ([1]; Rate 1.4 gN/m^2, Day 7): 5.0c
- Quality Ratings - Creeping Bentgrass ([1]; Rate 1.4 gN/m^2, Day 7): 5.7a
- Color Ratings - Creeping Bentgrass ([1]; Rate 1.4 gN/m^2, Day 14): 5.0e
- Quality Ratings - Creeping Bentgrass ([1]; Rate 1.4 gN/m^2, Day 14): 5.7de
- Color Ratings - Creeping Bentgrass ([1]; Rate 1.4 gN/m^2, Day 21): 6.0a
- Quality Ratings - Creeping Bentgrass ([1]; Rate 1.4 gN/m^2, Day 21): 7.0a
- Color Ratings - Creeping Bentgrass ([1]; Rate 1.4 gN/m^2, Day 28): 6.7ab
- Quality Ratings - Creeping Bentgrass ([1]; Rate 1.4 gN/m^2, Day 28): 7.0a
- Color Ratings - Creeping Bentgrass ([1]; Rate 1.4 gN/m^2, Day 35): 5.7ab
- Quality Ratings - Creeping Bentgrass ([1]; Rate 1.4 gN/m^2, Day 35): 5.3cd
- Color Ratings - Creeping Bentgrass ([1]; Rate 1.4 gN/m^2, Day 42): 7.0a
- Quality Ratings - Creeping Bentgrass ([1]; Rate 1.4 gN/m^2, Day 42): 6.7a
- Color Ratings - Creeping Bentgrass ([1]; Rate 2.8 gN/m^2, Day 7): 5.3bc
- Quality Ratings - Creeping Bentgrass ([1]; Rate 2.8 gN/m^2, Day 7): 5.7a
- Color Ratings - Creeping Bentgrass ([1]; Rate 2.8 gN/m^2, Day 14): 5.0e
- Quality Ratings - Creeping Bentgrass ([1]; Rate 2.8 gN/m^2, Day 14): 5.3e
- Color Ratings - Creeping Bentgrass ([1]; Rate 2.8 gN/m^2, Day 21): 6.0a
- Quality Ratings - Creeping Bentgrass ([1]; Rate 2.8 gN/m^2, Day 21): 7.0a
- Color Ratings - Creeping Bentgrass ([1]; Rate 2.8 gN/m^2, Day 28): 6.3ab
- Quality Ratings - Creeping Bentgrass ([1]; Rate 2.8 gN/m^2, Day 28): 7.0a
- Color Ratings - Creeping Bentgrass ([1]; Rate 2.8 gN/m^2, Day 35): 5.0b
- Quality Ratings - Creeping Bentgrass ([1]; Rate 2.8 gN/m^2, Day 35): 4.3 days
- Color Ratings - Creeping Bentgrass ([1]; Rate 2.8 gN/m^2, Day 42): 6.3a
- Quality Ratings - Creeping Bentgrass ([1]; Rate 2.8 gN/m^2, Day 42): 6.7a
- Color Ratings - Tall fescue grass [2, 4]: 5.0 days
- Quality Ratings - Tall fescue grass [2, 4]: 5.7c
- Color Ratings - Tall fescue grass [2, 5]: 6.0b
- Quality Ratings - Tall fescue grass [2, 5]: 7.0b
- Color Ratings - Tall fescue grass [2, 6]: 7.0bc
- Quality Ratings - Tall fescue grass [2, 6]: 7.0b
- Color Ratings - Tall fescue grass [2, 7]: 8.0a
- Quality Ratings - Tall fescue grass [2, 7]: 8.0a
- Color Ratings - Tall fescue grass [2, 8]: 8.0a
- Quality Ratings - Tall fescue grass [2, 8]: 8.0a
- Color Ratings - Tall fescue grass [2, 9]: 6.0c
- Quality Ratings - Tall fescue grass [2, 9]: 6.0c
- Color Ratings - Tall fescue grass [2, 10]: 7.0a
- Quality Ratings - Tall fescue grass [2, 10]: 7.0b
- Color Ratings - Tall fescue grass [2, 11]: 7.0bc
- Quality Ratings - Tall fescue grass [2, 11]: 7.7a
- Color Ratings - Tall fescue grass [2, 12]: 8.0a
- Quality Ratings - Tall fescue grass [2, 12]: 8.0a
- Color Ratings - Tall fescue grass [2, 13]: 8.0a
- Quality Ratings - Tall fescue grass [2, 13]: 8.0a

Structure (SMILES): NC(N)=O [Urea, urea, reference compound]
- Injury 1-9 (9 = no injury) ([3]; 1.09 Lbs. product/1000 square feet): 8.0^a,b,c
- Injury 1-9 (9 = no injury) ([3]; 2.17 Lbs. product/1000 square feet): 8.7^a
- Injury 1-9 (9 = no injury) ([3]; 6.51 Lbs. product/1000 square feet): 8.3^a,b
